Results from US20070027175A1, “Antineoplastic activities of ellipticine and its derivatives” (priority 2005, published 2007).
Where two headings read alike, the source gives them in different places.

Key:
[1] = test system: RPMI8226 myeloma cell line; assay: CellTiter-Glo luminescent cell viability assay, RPMI8226; format: cell-based, human; parameters: unit of the concentration uncertain
Experimental: (§1) The dosage of each derivative was set at 2, 0.2 and 0.02 mM. A cell culture medium control and 0.5% DMSO control was maintained in each experiment. The cell viability was tested each day over a period of five days using the CellTiter-Glo luminescent cell viability assay kit from Promega Co.
Cell Titer-Glo luminescent cell viability assay kit from Promega Co (Madison, Wis.) was used to determine cell growth inhibition by the various compounds tested. The kit determines cell viability by quantifying the amount of ATP present in the cell culture medium. Presence of ATP signals the presence of metabolically active cells (3). The intensity of luminescence was measured by a computerized luminometer (Promega, Co. Madison, Wis.). Each well was read five times within 30 minutes of adding Cell Titer-Glo reagent mixture. […]

[2] = test system: NCI-60 cancer panel; details: average across the cell lines of the concentration at which growth is inhibited 50%; unit in the High Conc. footnote; cited from earlier work
[3] = test system: myeloma cell lines ARK, KMS11, RPMI 8226, and U266; assay: In vitro screening of DTP compounds on myeloma cell lines (CellTiter-Glo); format: cell-based, human
Experimental: Eight myeloma cell lines were contacted with the antineoplastic agents to be tested in ninety six well culture plates. […]
Myeloma cell lines were maintained at >90% viability at 37° C. and 5% CO2. Cells were diluted to 20,000 cells/ml in fresh medium. A 50-μl aliquot of cell suspension was seeded in 96-well tissue culture plates to final cell counts of 1,000 cells/well. All compounds obtained from NCI's Developmental Therapeutics Program (DTP compounds) were dissolved in 100% dimethylsulfoxide (DMSO) (Sigma-Aldrich, St. Louis, Mo.) at 1 mg/ml and further diluted in fresh medium to 1 μg/ml. Each compound (50-μl aliquots) was distributed to a well containing 1,000 myeloma cells. Each plate included controls with addition of only medium or only DMSO (0.5% final concentration). All experiments were conducted in triplicate.
Using CellTiter-Glo Luminescent Assay kit (Promega, Madison, Wis.) according to manufacturer's instructions, cell viability was assayed every 24 hours after addition of DTP compound for 5 days. Briefly, the CellTiter-Glo substrate was dissolved in buffer, and 100 μl was added to each well. […] The statistic sampling distribution for each compound per cell line was based on sample of n=15 measurements.
Other ellipticine derivatives from the DTP (at 0.5 mM final concentration) were used to screen the same four myeloma cell lines.

[4] = test system: CAG myeloma cell line; assay: CellTiter-Glo luminescent cell viability assay, CAG; format: cell-based, human; parameters: unit of the concentration uncertain
Experimental: as §1
(§2) Cell Titer-Glo luminescent cell viability assay kit from Promega Co (Madison, Wis.) was used to determine cell growth inhibition by the various compounds tested. The kit determines cell viability by quantifying the amount of ATP present in the cell culture medium. Presence of ATP signals the presence of metabolically active cells (3). The intensity of luminescence was measured by a computerized luminometer (Promega, Co. Madison, Wis.). Each well was read five times within 30 minutes of adding Cell Titer-Glo reagent mixture.
(§3) Cells were contacted with the antineoplastic agents in ninety six well culture plates. The concentration of each neoplastic agent was maintained a constant. A cell culture medium control and 0.5% DMSO control were maintained in each set of experiments. The cell viability was tested every day using the CellTiter-Glo luminescent cell viability kit from Promega Co. (Madison, Wis.) for a period of five days.

[5] = test system: Ark myeloma cell line; assay: CellTiter-Glo luminescent cell viability assay, Ark; format: cell-based, human; parameters: unit of the concentration uncertain
Experimental: as §1, §2, §3

[6] = test system: U266 myeloma cell line; parameters: cell viability (CellTiter-Glo luminescent assay): dose or concentration left out as unconfirmed; details: U266
Experimental: as §1
U266 cell line was one of 12 myeloma cell lines used in screening of anti-myeloma agents. In FIG. 10A, cells were treated with 14 ellipticine derivatives (0.5 mM) obtained from the DTP; control cells were untreated. Ellipticine derivatives are coded with NSC identifiers. For 5 days, cell viability was measured every 24 hours using CellTiter-Glo Luminescent Assay. […] In FIG. 10B, U266 cells, along with six other myeloma cell lines, were co-cultured in direct contact with human fetal bone mesenchymal cells and treated with EPED3 (0.5 mM and 2 mM) or Velcade (0.5 mM); control cells were untreated. Cell proliferation was assessed by MTT assay every 24 hours for 5 days. […] Error bars indicate standard deviation.
as §2, §3

[7] = test system: 12 myeloma cell lines (Ark, BW288, CAG, Delta47, DF15, JJN3, kms11, L363, opm2, RPMI8226, U266 and XG1); assay: Comparative study with existing anti-myeloma drugs (CellTiter-Glo); format: cell-based, human
Text: The results obtained from these controls are pooled together in the figure (●). The dose of each compound was set […].
Comparative study of NSC 338258 with existing anti-myeloma drugs Myeloma cell lines were exposed to NSC 338258 and existing anti myeloma drugs, Adriamycin® (Doxorubicin Hydrochloride) and Etoposide (VP-16-213) in ninety six well culture plates. The concentration of each compound was set […]. […] The cell growth was near zero in the following days (day 4 onwards; FIG. 6). It was also observed that 12 myeloma cell lines (Ark, BW288, CAG, Delta47, DF15, JJN3, kms11, L363, opm2, RPMI8226, U266 and XG1) responded to the same dosage (0.2 μM) of NSC 338258, VP-16-213 and Adriamycin in 5 days.

With `COc1ccc2[nH]c3c(C)c4ccncc4c(C)c3c2c1` [NSC 69187, ellipticine-9-methoxy-] the “cell viability (CellTiter-Glo luminescent assay)” value ([1]; 0.02 (unit uncertain), Day 1) was 103,366, the “cell viability (CellTiter-Glo luminescent assay)” value ([1]; 0.02 (unit uncertain), Day 2) was 238,331 and the “cell viability (CellTiter-Glo luminescent assay)” value ([1]; 0.02 (unit uncertain), Day 3) was 411,171. The “cell viability (CellTiter-Glo luminescent assay)” value ([1]; 0.02 (unit uncertain), Day 4) was 869,367, the “cell viability (CellTiter-Glo luminescent assay)” value ([1]; 0.02 (unit uncertain), Day 5) was 1,011,078 and the “cell viability (CellTiter-Glo luminescent assay)” value ([1]; 0.2 (unit uncertain), Day 1) was 82,834. For the same molecule, the “cell viability (CellTiter-Glo luminescent assay)” value ([1]; 0.2 (unit uncertain), Day 2) was 148,198, the “cell viability (CellTiter-Glo luminescent assay)” value ([1]; 0.2 (unit uncertain), Day 3) was 216,515 and the “cell viability (CellTiter-Glo luminescent assay)” value ([1]; 0.2 (unit uncertain), Day 4) was 311,641. For the same molecule, the “cell viability (CellTiter-Glo luminescent assay)” value ([1]; 0.2 (unit uncertain), Day 5) was 379,475, the “cell viability (CellTiter-Glo luminescent assay)” value ([1]; 2 (unit uncertain), Day 1) was 21,912 and the “cell viability (CellTiter-Glo luminescent assay)” value ([1]; 2 (unit uncertain), Day 2) was 2,688. The “cell viability (CellTiter-Glo luminescent assay)” value ([1]; 2 (unit uncertain), Day 3) was 820, the “cell viability (CellTiter-Glo luminescent assay)” value ([1]; 2 (unit uncertain), Day 4) was 601 and the “cell viability (CellTiter-Glo luminescent assay)” value ([1]; 2 (unit uncertain), Day 5) was 213. For the same molecule, the “Mean GI50” value [2] was −6.35 log^10 molar, the “inhibition of cell viability in four myeloma cell lines” value ([3]; 0.5 mg/ml, every 24 hours over 5 days) was “most significantly inhibited cell viability” and the “effective invitro dosage (cell growth inhibition)” value ([3]; myeloma cell lines) was 0.2 µM. The “cell viability (CellTiter-Glo luminescent assay)” value ([4]; 0.02 (unit uncertain), Day 1) was 188,754, the “cell viability (CellTiter-Glo luminescent assay)” value ([4]; 0.02 (unit uncertain), Day 2) was 552,402 and the “cell viability (CellTiter-Glo luminescent assay)” value ([4]; 0.02 (unit uncertain), Day 3) was 805,110. For the same molecule, the “cell viability (CellTiter-Glo luminescent assay)” value ([4]; 0.02 (unit uncertain), Day 4) was 2,582,505, the “cell viability (CellTiter-Glo luminescent assay)” value ([4]; 0.02 (unit uncertain), Day 5) was 4,299,468 and the “cell viability (CellTiter-Glo luminescent assay)” value ([4]; 0.2 (unit uncertain), Day 1) was 164,436. For the same molecule, the “cell viability (CellTiter-Glo luminescent assay)” value ([4]; 0.2 (unit uncertain), Day 2) was 358,735, the “cell viability (CellTiter-Glo luminescent assay)” value ([4]; 0.2 (unit uncertain), Day 3) was 511,726 and the “cell viability (CellTiter-Glo luminescent assay)” value ([4]; 0.2 (unit uncertain), Day 4) was 1,187,656. For the same molecule, the “cell viability (CellTiter-Glo luminescent assay)” value ([4]; 0.2 (unit uncertain), Day 5) was 1,595,148, the “cell viability (CellTiter-Glo luminescent assay)” value ([4]; 2 (unit uncertain), Day 1) was 88,285 and the “cell viability (CellTiter-Glo luminescent assay)” value ([4]; 2 (unit uncertain), Day 2) was 58,508. For the same molecule, the “cell viability (CellTiter-Glo luminescent assay)” value ([4]; 2 (unit uncertain), Day 3) was 17,247, the “cell viability (CellTiter-Glo luminescent assay)” value ([4]; 2 (unit uncertain), Day 4) was 9,111 and the “cell viability (CellTiter-Glo luminescent assay)” value ([4]; 2 (unit uncertain), Day 5) was 1,745. The “cell viability (CellTiter-Glo luminescent assay)” value ([5]; 0.02 (unit uncertain), Day 1) was 119,617, the “cell viability (CellTiter-Glo luminescent assay)” value ([5]; 0.02 (unit uncertain), Day 2) was 244,779 and the “cell viability (CellTiter-Glo luminescent assay)” value ([5]; 0.02 (unit uncertain), Day 3) was 371,712. The “cell viability (CellTiter-Glo luminescent assay)” value ([5]; 0.02 (unit uncertain), Day 4) was 824,251, the “cell viability (CellTiter-Glo luminescent assay)” value ([5]; 0.02 (unit uncertain), Day 5) was 1,347,042 and the “cell viability (CellTiter-Glo luminescent assay)” value ([5]; 0.2 (unit uncertain), Day 1) was 92,678. The “cell viability (CellTiter-Glo luminescent assay)” value ([5]; 0.2 (unit uncertain), Day 2) was 208,050, the “cell viability (CellTiter-Glo luminescent assay)” value ([5]; 0.2 (unit uncertain), Day 3) was 256,789 and the “cell viability (CellTiter-Glo luminescent assay)” value ([5]; 0.2 (unit uncertain), Day 4) was 506,725. For the same molecule, the “cell viability (CellTiter-Glo luminescent assay)” value ([5]; 0.2 (unit uncertain), Day 5) was 826,957, the “cell viability (CellTiter-Glo luminescent assay)” value ([5]; 2 (unit uncertain), Day 1) was 14,932 and the “cell viability (CellTiter-Glo luminescent assay)” value ([5]; 2 (unit uncertain), Day 2) was 815. The “cell viability (CellTiter-Glo luminescent assay)” value ([5]; 2 (unit uncertain), Day 3) was 289, the “cell viability (CellTiter-Glo luminescent assay)” value ([5]; 2 (unit uncertain), Day 4) was 463 and the “cell viability (CellTiter-Glo luminescent assay)” value ([5]; 2 (unit uncertain), Day 5) was 375. For the same molecule, the “cell viability (CellTiter-Glo luminescent assay)” value ([6]; 0.02, Day 1) was 30,188, the “cell viability (CellTiter-Glo luminescent assay)” value ([6]; 0.02, Day 2) was 46,889 and the “cell viability (CellTiter-Glo luminescent assay)” value ([6]; 0.02, Day 3) was 63,864. The “cell viability (CellTiter-Glo luminescent assay)” value ([6]; 0.02, Day 4) was 112,366, the “cell viability (CellTiter-Glo luminescent assay)” value ([6]; 0.02, Day 5) was 145,073 and the “cell viability (CellTiter-Glo luminescent assay)” value ([6]; 0.2, Day 1) was 24,729. For the same molecule, the “cell viability (CellTiter-Glo luminescent assay)” value ([6]; 0.2, Day 2) was 38,799, the “cell viability (CellTiter-Glo luminescent assay)” value ([6]; 0.2, Day 3) was 45,134 and the “cell viability (CellTiter-Glo luminescent assay)” value ([6]; 0.2, Day 4) was 69,867. The “cell viability (CellTiter-Glo luminescent assay)” value ([6]; 0.2, Day 5) was 90,555, the “cell viability (CellTiter-Glo luminescent assay)” value ([6]; 2, Day 1) was 7,818 and the “cell viability (CellTiter-Glo luminescent assay)” value ([6]; 2, Day 2) was 3,633. For the same molecule, the “cell viability (CellTiter-Glo luminescent assay)” value ([6]; 2, Day 3) was 1,048, the “cell viability (CellTiter-Glo luminescent assay)” value ([6]; 2, Day 4) was 628 and the “cell viability (CellTiter-Glo luminescent assay)” value ([6]; 2, Day 5) was 144.
In the case of `COc1cc([C@@H]2c3cc4c(cc3[C@@H](O[C@@H]3O[C@@H]5CO[C@@H](C)O[C@H]5[C@H](O)[C@H]3O)[C@H]3COC(=O)[C@H]23)OCO4)cc(OC)c1O` [VP-16-213, Etoposide], the “response of 12 myeloma cell lines” value ([7]; 0.2 μM, in 5 days) was “responded” and the “speed of response compared with EPED3” value ([7]; myeloma cell lines (n=12), regardless of the concentration) was “much more delayed response”.
